Read-outs that look alike come from different tables or passages of the source.
Target: CRBN (Homo sapiens, UniProt Q96SW2)
Experiment: CRBN displacement assay Format 2a (fluorescence polarization, 1536-well, Envision reader)
Format: binding
Conditions: for CRBN Amax* (% at 50 μM) Format 2a: greatest effect as % displacement of the reference probe at the highest concentration tested (50 μM), given where AC50 >50 μM
Method: Compounds were tested in the following biochemical and cellular assays.
BodipyFL conjugated lenalidomide compound HH was used as a fluorescent probe. […] Protein and substrate were diluted in assay buffer.
The fluorescence of the Bodipy FL-based probe was excited at 480 nm and the emissions of the product were measured at 535 nm. The fluorescence in each well was excited by 30 flashes per measurement.
For the determination of AC50 values, assays were performed at room temperature in 1536-well plates with a total assay volume of 6.03 μL per well. The test compounds were dissolved and diluted in 100% DMSO. For the assays, 30 nL of DMSO or compound solution were added per well, followed by the addition of 3 μL protein solution (80 nM protein in 1× assay buffer).
The final assay concentration of the protein was nominally 40 nM. After 45 minutes of pre-incubation at room temperature, the competition for binding was started by the addition of 3 μL probe solution (10 nM probe dissolved in assay buffer). The final concentration of the probe in the assays was 5 nM. After the addition of the probe solution, the final DMSO concentration in the assay was 0.5% (v/v). The effect of the probe on the pre-established compound-protein complex equilibrium was determined after 45 minutes (t=45 min). The AC50 value was calculated from the plot of percentage of protein saturation versus the test compound concentration by a logistics fit according to: y=A^2+(A^1−A^2)/(1+(x/AC50)^p), where y is the %-saturation value at the test compound concentration, x. A^1 is the lowest saturation value, i.e., 0%, and A^2 the maximum saturation value, i.e. 100%. The exponent, p, is the Hill coefficient.

[1] = concentration at which 50% of reference probe Compound HH is displaced, 40 nM protein, 5 nM probe, read-out: CRBN AC50 [μM] Format 2a

Sequence of CRBN (Q96SW2 whole entry): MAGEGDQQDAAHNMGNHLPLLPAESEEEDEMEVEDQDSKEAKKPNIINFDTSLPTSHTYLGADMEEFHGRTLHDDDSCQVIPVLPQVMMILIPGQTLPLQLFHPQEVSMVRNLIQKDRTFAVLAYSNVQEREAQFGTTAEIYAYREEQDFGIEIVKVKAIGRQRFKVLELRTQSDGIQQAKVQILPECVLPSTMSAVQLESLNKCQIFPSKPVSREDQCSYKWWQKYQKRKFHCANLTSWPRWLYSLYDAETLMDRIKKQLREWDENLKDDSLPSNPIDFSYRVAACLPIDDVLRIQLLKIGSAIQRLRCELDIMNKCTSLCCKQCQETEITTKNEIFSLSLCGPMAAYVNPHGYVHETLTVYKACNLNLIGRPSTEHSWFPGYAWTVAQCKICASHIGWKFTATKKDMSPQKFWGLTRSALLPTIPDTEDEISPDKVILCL

Row | AC50 [1] | AC50 | Compound | further results
1 | – | 33.3 µM | O=C1CCN(Cc2cc(C(F)(F)F)[nH]n2)C(=O)N1 [ILB-84, 1-((5-(trifluoromethyl)-1H-pyrazol-3-yl)methyl)dihydropyrimidine-2,4(1H,3H)-dione] | –
2 | – | > 50 µM | Cn1cc(Br)c(CN2CCC(=O)NC2=O)n1 [ILB-85, 1-((4-bromo-1-methyl-1H-pyrazol-3-yl)methyl)dihydropyrimidine-2,4(1H,3H)-dione] | CRBN Amax* (% at 50 μM) Format 2a (45 min): 47%
3 | – | 5.34 µM | O=C1CCN(Cc2nc(C(=O)O)cs2)C(=O)N1 [ILB-87, 2-((2,4-dioxotetrahydropyrimidin-1(2H)-yl)methyl)thiazole-4-carboxylic acid] | –
4 | – | 16.7 µM | O=C1CCN(Cc2ccncc2Br)C(=O)N1 [ILB-89, 1-((3-bromopyridin-4-yl)methyl)dihydropyrimidine-2,4(1H,3H)-dione] | –
5 | – | > 50 µM | O=C1CCN(Cc2ncc(Br)cn2)C(=O)N1 [ILB-90, 1-((5-bromopyrimidin-2-yl)methyl)dihydropyrimidine-2,4(1H,3H)-dione] | CRBN Amax* (% at 50 μM) Format 2a (45 min): 40%
6 | – | 5.22 µM | O=C1CCN(Cc2cc(Cl)ccn2)C(=O)N1 [ILB-91, 1-((4-chloropyridin-2-yl)methyl)dihydropyrimidine-2,4(1H,3H)-dione] | –
7 | – | 1.85 µM | O=C1CCN(Cc2cc(Br)ccn2)C(=O)N1 [ILB-92, 1-((4-bromopyridin-2-yl)methyl)dihydropyrimidine-2,4(1H,3H)-dione] | –
8 | – | 10.9 µM | Nc1ncc(Br)cc1CN1CCC(=O)NC1=O [ILB-93, 1-((2-amino-5-bromopyridin-3-yl)methyl)dihydropyrimidine-2,4(1H,3H)-dione] | –
9 | – | 4.95 µM | O=C1CCN(Cc2cccn(C3CCN(C(=O)OCc4ccccc4)CC3)c2=O)C(=O)N1 [ILB-94, Benzyl-4-(3-((2,4-dioxotetrahydropyrimidin-1(2H)-yl)methyl)-2-oxopyridin-1(2H)-yl)piperidine-1-carboxylate] | –

Further lines, the compound ahead of its results:

Row | Compound | AC50 [1] | AC50 | further results
10 | 1-((4-bromo-1H-pyrazol-5-yl)methyl)dihydropyrimidine-2,4(1H,3H)-dione [ILB-88] | > 50 µM | – | CRBN Amax* (% at 50 μM) Format 2a: 37%
11 | COc1ccc(C(=O)O)cc1CN1CCC(=O)NC1=O [ILB-9, 3-((2,4-Dioxotetrahydropyrimidin-1(2H)-yl)methyl)-4-methoxybenzoic acid] | – | > 50 µM | CRBN Amax* (% at 50 μM) Format 2a (45 min): 1%
12 | C[Si](C)(C)CCOCN1C(=O)CCN(Cc2cccc(C=O)c2)C1=O [ILB-10, 3-((2,4-Dioxo-3-((2-(trimethylsilyl)ethoxy)methyl)tetrahydropyrimidin-1(2H)-yl)methyl)benzaldehyde] | > 50 µM | – | CRBN Amax* (% at 50 μM) Format 2a (45 min): 0%
13 | Cc1cc(O)ccc1N1CCC(=O)NC1=O [ILB-13, 1-(4-hydroxy-2-methylphenyl)dihydropyrimidine-2,4(1H,3H)-dione] | – | 2.42 µM | –
14 | O=C(O)COc1ccc(Cl)c(N2CCC(=O)NC2=O)c1 [ILB-17, 2-(4-Chloro-3-(2,4-dioxotetrahydropyrimidin-1(2H)-yl)phenoxy)acetic acid] | 3.41 µM | – | –
15 | O=C1CCN(c2cc(C(=O)O)ccc2O)C(=O)N1 [ILB-22, 3-(2,4-Dioxotetrahydropyrimidin-1(2H)-yl)-4-hydroxybenzoic acid] | 0.69 µM | – | –
16 | O=C1CCN(c2ccc(C#CCCCI)cc2)C(=O)N1 [ILB-39, 1-(4-(5-iodopent-1-yn-1-yl)phenyl)dihydropyrimidine-2,4(1H,3H)-dione] | 3.15 µM | – | –
17 | NCCC#Cc1ccc(N2CCC(=O)NC2=O)cc1 [ILB-44, 1-(4-(4-aminobut-1-yn-1-yl)phenyl)dihydropyrimidine-2,4(1H,3H)-dione] | 5.43 µM | – | –
18 | O=C1CCN(c2ccc(C#CCN3CCC(n4cc(Br)cn4)CC3)cc2)C(=O)N1 [ILB-49, 1-(4-(3-(4-(4-bromo-1H-pyrazol-1-yl)piperidin-1-yl)prop-1-yn-1-yl)phenyl)dihydropyrimidine-2,4(1H,3H)-dione] | 3.36 µM | – | –
19 | CCOC(COc1ccc(N2CCC(=O)NC2=O)c(Cl)c1)OCC [ILB-61, 1-(2-chloro-4-(2,2-diethoxyethoxy)phenyl)dihydropyrimidine-2,4(1H,3H)-dione] | 3.44 µM | – | –
20 | O=C(O)Cn1cc(N2CCC(=O)NC2=O)cn1 [ILB-65, 2-(4-(2,4-Dioxotetrahydropyrimidin-1(2H)-yl)-1H-pyrazol-1-yl)acetic acid] | – | 26.1 µM | –
21 | O=C(O)CCn1cc(N2CCC(=O)NC2=O)cn1 [ILB-66, 3-(4-(2,4-Dioxotetrahydropyrimidin-1(2H)-yl)-1H-pyrazol-1-yl)propanoic acid] | – | > 50 µM | CRBN Amax* (% at 50 μM) Format 2a (45 min): 46%
22 | NCCN1CCC(Oc2ccc(N3CCC(=O)NC3=O)cc2)CC1 [ILB-68, 1-(4-((1-(2-aminoethyl)piperidin-4-yl)oxy)phenyl)dihydropyrimidine-2,4(1H,3H)-dione] | 4.7 µM | – | –
23 | CCOC(=O)c1cnc(C)c(N2CCC(=O)NC2=O)c1 [ILB-82, ethyl 5-(2,4-dioxotetrahydropyrimidin-1(2H)-yl)-6-methylnicotinate] | 29.8 µM | – | –
24 | O=C1CCN(Cc2sccc2Br)C(=O)N1 [ILB-83, 1-((3-bromothiophen-2-yl)methyl)dihydropyrimidine-2,4(1H,3H)-dione] | – | 45.6 µM | –

From US20220387602A1, “BIFUNCTIONAL DEGRADERS AND THEIR METHODS OF USE” (NOVARTIS AG, priority 2019, published 2022)
